From patent publication US20060211697A1, “2-(2 Or 4-substituted aryloxy)-phenol derivatives as antibacterial agents” (priority 2004, published 2006)
Converted amounts (≈) assume the structure as drawn. Read-outs that look alike come from different tables or passages of the source.

How the values were obtained:
Format in all cases: cell-based
E. coli 43888 = experiment: MIC, broth dilution method, E. coli
Description: (§1) Minimum Inhibition Concentration (MIC), Broth Dilution Method:
(§2) The compounds of the present invention were tested against an assortment of Gram positive and Gram negative organisms using standard microtitration techniques well known to those skilled in the art. Cultures of bacteria are initially brought up from the freezer by streaking a loopful onto agar plates under the appropriate conditions. For instance bacterial stocks are streaked onto chocolate agar and then incubated for 18 hours at 35-37° C. in a 5% CO2 incubator. Five to ten colonies are picked from the chocolate agar plate for subculture to Brain-Heart infusion (BHI) broth, Mueller Hinton broth, or BHI containing 4% serum and incubated under the appropriate conditions. The ability of the test compound to act as an antimicrobial is determined by the ability to inhibit bacterial growth in vitro. The optical density of the culture of organisms in the presence of an active compound is compared to the optical density of the same organism untreated. The activity of the compounds is described as either negative or the lowest concentration inhibiting growth (Minimum Inhibitory Concentration [MIC]).

H. influenzae 43095 = experiment: MIC, broth dilution method, H. influenzae
Description: as §1, §2

S. aureus 29213 = experiment: MIC, broth dilution method, S. aureus
Description: as §1, §2

S. pneumoniae 11733 = experiment: MIC, broth dilution method, S. pneumoniae
Description: as §1, §2

[1] = Escherichia coli, 43888, Gram-negative bacteria, in vitro, broth dilution, read-out: MIC E. coli 43888
[2] = Haemophilus influenzae, 43095, Gram-negative bacteria, in vitro, broth dilution, read-out: MIC H. influenzae 43095
[3] = Staphylococcus aureus, 29213, Gram-positive bacteria, in vitro, broth dilution, read-out: MIC S. aureus 29213
[4] = Streptococcus pneumoniae, 11733, Gram-positive bacteria, in vitro, broth dilution, read-out: MIC S. pneumoniae 11733

SMILES	MIC (E. coli 43888; [1])	MIC (H. influenzae 43095; [2])	MIC (S. aureus 29213; [3])	MIC (S. pneumoniae 11733; [4])	MIC (E. coli 43888; Escherichia coli, 43888, read-out: MIC E. coli 43888)	MIC (H. influenzae 43095; Haemophilus influenzae, 43095, read-out: MIC H. influenzae 43095)	MIC (S. aureus 29213; Staphylococcus aureus, 29213, read-out: MIC S. aureus 29213)	MIC (S. pneumoniae 11733; Streptococcus pneumoniae, 11733, read-out: MIC S. pneumoniae 11733)
Cc1ccc(Oc2ccc([N+](=O)[O-])cc2-c2nnn[nH]2)c(O)c1 [Example 16, 5-Methyl-2-[4-nitro-2-(1H-tetrazol-5-yl)-phenoxy]-phenol and 5-methyl-2-[4-nitro-2-(2H-tetrazol-5-yl)-phenoxy]-phenol]	31.3 µg/mL (≈ 99.9 µM)	31.3 µg/mL (≈ 99.9 µM)	2 µg/mL (≈ 6.38 µM)	7.9 µg/mL (≈ 25.2 µM)	–	–	–	–
Oc1cc(F)ccc1Oc1ccc(Cl)cc1-c1nnn[nH]1 [Example 18, 2-[4-Chloro-2-(1H-tetrazol-5-yl)-phenoxy]-5-fluoro-phenol and 2-[4-chloro-2-(2H-tetrazol-5-yl)-phenoxy]-5-fluoro-phenol]	7.9 µg/mL (≈ 25.8 µM)	4 µg/mL (≈ 13 µM)	0.125 µg/mL (≈ 0.408 µM)	0.25 µg/mL (≈ 0.815 µM)	–	–	–	–
Oc1cc(Cl)ccc1Oc1ccc(Cl)cc1-c1nnn[nH]1 [Example 19, 5-chloro-2-[4-Chloro-2-(1H-tetrazol-5-yl)-phenoxy]-phenol and 5-chloro-2-[4-chloro-2-(2H-tetrazol-5-yl)-phenoxy]-phenol]	4 µg/mL (≈ 12.4 µM)	2 µg/mL (≈ 6.19 µM)	0.125 µg/mL (≈ 0.387 µM)	2 µg/mL (≈ 6.19 µM)	–	–	–	–
Oc1ccccc1Oc1ccccc1-c1nnn[nH]1 [Example 20, 2-[2-(1H-Tetrazol-5-yl)-phenoxy]-phenol and 2-[2-(2H-tetrazol-5-yl)-phenoxy]-phenol]	2 µg/mL (≈ 7.87 µM)	4 µg/mL (≈ 15.7 µM)	0.25 µg/mL (≈ 0.983 µM)	4 µg/mL (≈ 15.7 µM)	–	–	–	–
Cc1ccc(Oc2ccc(-c3nnc(N)o3)cc2)c(O)c1 [Example 24, 2-[4-(5-Amino-[1,3,4]oxadiazol-2-yl)-phenoxy]-5-methyl-phenol]	6.2 µg/mL (≈ 21.9 µM)	12.5 µg/mL (≈ 44.1 µM)	0.8 µg/mL (≈ 2.82 µM)	12.5 µg/mL (≈ 44.1 µM)	–	–	–	–
Cc1ccc(Oc2ccc(/C(N)=N/O)cc2)c(O)c1 [Example 30, N-Hydroxy-4-(2-hydroxy-4-methyl-phenoxy)-benzamidine]	0.5 µg/mL (≈ 1.94 µM)	31.3 µg/mL (≈ 121 µM)	4 µg/mL (≈ 15.5 µM)	62.5 µg/mL (≈ 242 µM)	–	–	–	–
Cc1ccc(Oc2ccccc2-c2noc(C(=O)O)n2)c(O)c1 [Example 37, 3-[2-(2-Hydroxy-4-methyl-phenoxy)-phenyl]-[1,2,4]oxadiazole-5-carboxylic acid]	0.5 µg/mL (≈ 1.6 µM)	0.5 µg/mL (≈ 1.6 µM)	0.125 µg/mL (≈ 0.4 µM)	8 µg/mL (≈ 25.6 µM)	–	–	–	–
Cc1ccc(Oc2ccc([N+](=O)[O-])cc2-c2noc(C(=O)O)n2)c(O)c1 [Example 39, 3-[2-(2-Hydroxy-4-methyl-phenoxy)-5-nitro-phenyl]-[1,2,4]oxadiazole-5-carboxylic acid]	4 µg/mL (≈ 11.2 µM)	8 µg/mL (≈ 22.4 µM)	0.5 µg/mL (≈ 1.4 µM)	> 32 µg/mL	–	–	–	–
Cc1ccc(Oc2ccc(-c3noc(C(=O)O)n3)cc2)c(O)c1 [Example 40, 3-[4-(2-Hydroxy-4-methyl-phenoxy)-phenyl]-[1,2,4]oxadiazole-5-carboxylic acid]	8 µg/mL (≈ 25.6 µM)	4 µg/mL (≈ 12.8 µM)	4 µg/mL (≈ 12.8 µM)	16 µg/mL (≈ 51.2 µM)	–	–	–	–
Oc1cc(F)ccc1Oc1ccccc1-c1ncon1 [Example 42, 5-Fluoro-2-(2-[1,2,4]oxadiazol-3-yl-phenoxy)-phenol]	1 µg/mL (≈ 3.67 µM)	1 µg/mL (≈ 3.67 µM)	1 µg/mL (≈ 3.67 µM)	> 32 µg/mL	–	–	–	–
Cc1ccc(Oc2ccccc2-c2ncon2)c(O)c1 [Example 43, 5-Methyl-2-(2-[1,2,4]oxadiazol-3-yl-phenoxy)-phenol]	0.5 µg/mL (≈ 1.86 µM)	4 µg/mL (≈ 14.9 µM)	0.5 µg/mL (≈ 1.86 µM)	15.7 µg/mL (≈ 58.5 µM)	–	–	–	–
Oc1cc(F)ccc1Oc1ccc(Cl)cc1-c1ncon1 [Example 44, 2-(4-Chloro-2-[1,2,4]oxadiazol-3-yl-phenoxy)-5-fluoro-phenol]	2 µg/mL (≈ 6.52 µM)	2 µg/mL (≈ 6.52 µM)	0.5 µg/mL (≈ 1.63 µM)	> 32 µg/mL	–	–	–	–
Cc1ccc(Oc2ccc(-c3ncon3)cc2)c(O)c1 [Example 45, 5-Methyl-2-(4-[1,2,4]oxadiazol-3-yl-phenoxy)-phenol]	1 µg/mL (≈ 3.73 µM)	4 µg/mL (≈ 14.9 µM)	0.5 µg/mL (≈ 1.86 µM)	1 µg/mL (≈ 3.73 µM)	–	–	–	–
CCOC(=O)c1nc(-c2ccccc2Oc2ccc(Cl)cc2O)no1 [Example 51, 3-[2-(4-Chloro-2-hydroxy-phenoxy)-phenyl]-[1,2,4]oxadiazole-5-carboxylic acid ethyl ester]	6.2 µg/mL (≈ 17.2 µM)	3.1 µg/mL (≈ 8.59 µM)	0.4 µg/mL (≈ 1.11 µM)	> 25 µg/mL	–	–	–	–
O=C(O)c1nc(-c2ccccc2Oc2ccc(Cl)cc2O)no1 [Example 54, 3-[2-(4-Chloro-2-hydroxy-phenoxy)-phenyl]-[1,2,4]oxadiazole-5-carboxylic acid]	0.2 µg/mL (≈ 0.601 µM)	0.2 µg/mL (≈ 0.601 µM)	0.05 µg/mL (≈ 0.15 µM)	3.1 µg/mL (≈ 9.32 µM)	–	–	–	–
Oc1cc(Cl)ccc1Oc1ccccc1-c1ncon1 [Example 57, 5-Chloro-2-(2-[1,2,4]oxadiazol-3-yl-phenoxy)-phenol]	0.05 µg/mL (≈ 0.173 µM)	0.05 µg/mL (≈ 0.173 µM)	0.05 µg/mL (≈ 0.173 µM)	6.2 µg/mL (≈ 21.5 µM)	–	–	–	–
Cc1ccc(Oc2ccccc2NN)c(O)c1 [Example 66, 2-(2-Hydrazino-phenoxy)-5-methyl-phenol]	–	–	–	–	0.8 µg/mL (≈ 3.47 µM)	0.1 µg/mL (≈ 0.434 µM)	0.1 µg/mL (≈ 0.434 µM)	3.1 µg/mL (≈ 13.5 µM)
Cc1ccc(Oc2ccc(NN)cc2)c(O)c1 [Example 67, 2-(4-Hydrazino-phenoxy)-5-methyl-phenol]	0.4 µg/mL (≈ 1.74 µM)	0.1 µg/mL (≈ 0.434 µM)	0.1 µg/mL (≈ 0.434 µM)	6.2 µg/mL (≈ 26.9 µM)	–	–	–	–
CCOC(=O)c1cnn(-c2ccc(Oc3ccc(C)cc3O)cc2)c1 [Example 69, 1-[4-(2-Hydroxy-4-methyl-phenoxy)-phenyl]-1H-pyrazole-4-carboxylic acid ethyl ester]	1.6 µg/mL (≈ 4.73 µM)	> 25 µg/mL	0.2 µg/mL (≈ 0.591 µM)	> 25 µg/mL	–	–	–	–
Cc1ccc(Oc2ccc(-n3cc(C(=O)O)cn3)cc2)c(O)c1 [Example 71, 1-[4-(2-Hydroxy-4-methyl-phenoxy)-phenyl]-1H-pyrazole-4-carboxylic acid]	> 25 µg/mL	25 µg/mL (≈ 80.6 µM)	3.1 µg/mL (≈ 9.99 µM)	12.5 µg/mL (≈ 40.3 µM)	–	–	–	–
